The source of these data is PubChem BioAssay (NCI).

Molecules are shown by their SMILES.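 Dose response: 5 concentrations. Exposure: 48 h. Format: 96-well plates. Endpoint: linear interpolation; highest concentration if not reached. At the GI50, growth is halved. The concentration for full growth arrest is given as TGI.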

The test system of one experiment is SF-539 CNS. Nature of the experiment: NCI anticancer screen, dose series, 48 h.
As for `CCOC(=O)c1cc2nc3ccccc3c(=O)n2c2ccccc12`, the TGI was over 10 µM.
For `CCN1CCN(c2nc(C)cc(N(CCNc3ccnc4cc(Cl)ccc34)Cc3ccc4c(c3)OCO4)n2)CC1`, the GI50 is 1.7 µM and the TGI is 3.18 µM.
Regarding `COc1c(Cl)c(=O)oc2ccc(Cl)cc12`, the TGI was over 100 µM.
The same measure, in the same setting: the value for `NS(=O)(=O)c1cc(Br)c(N=Nc2ccc(O)c3ncccc23)c(Br)c1` was over 100 µM.
For the compound `Cc1cc(I)cc(CN(C)CCCN2CCCCC2)c1O`, the GI50 was 13.7 µM and the TGI amounted to 26.9 µM.
Regarding `CN(C(=O)c1ccc(C(F)(F)F)cc1)c1ccc(Oc2ccc3c(c2)cc(C(=O)N2CCN(Cc4ccc(OC(F)F)cc4)CC2)n3C)nc1`, the GI50 was over 100 µM and the TGI was over 100 µM.
As for `CCCCCCCCC/C=C1\CCC(CN2CCOCC2)C1=O` (stereo unspecified), the TGI worked out at 3.74 µM.
Compound `Cc1ccccc1S(=O)(=O)OC1NS(=O)(=O)c2ccccc21` (stereo unspecified) registered a TGI of over 100 µM.
In the case of `O=C(/C=C/c1ccncc1)c1cc(Cl)ccc1O`, the GI50 is 18 µM and the TGI came to 41.9 µM.
The matching figures for `Nc1ncnc2n[nH]c(Nc3ccc(F)cc3)c12`: 23.6 µM and over 100 µM.
The matching figures for `CCN(CC)c1ccc(-c2cc(-c3cc(OC)c(OC)c(OC)c3)nc(N3CCOCC3)c2C#N)cc1`: 1.36 µM and 12.7 µM.
For the compound `CC(=O)OC1=CC(n2cc(F)c(=O)[nH]c2=O)OC(C)C1=O` (stereo unspecified), the TGI worked out at 29 µM.
On the same count and under the same terms, the result for `NC1(C(=O)OCc2ccccc2)CCCC1` reads 31.7 µM.
On to `Cc1cc(/C=C/c2ccc3cc(N(C)C)ccc3[n+]2C)c(C)n1-c1ccccc1`, for which the GI50 was 0.336 µM and the TGI came to 2.47 µM.
Consider `Cn1cnc([N+](=O)[O-])c1S(=O)(=O)Oc1cccc2ccccc12`, for which the GI50 was 2.23 µM and the TGI turned out to be 5.59 µM.
In the case of `O=C1c2cc3c(cc2-c2c1c1ccc(F)cc1c(=O)n2CCCNCCO)OCO3`, the GI50 is 0.0407 µM and the TGI came out at 0.324 µM.
For `COc1cccc(-c2nc(-c3ccc(NC(=O)C(C)C)cc3)[nH]c2-c2ccnc(Br)c2)c1`, the GI50 was 1.78 µM and the TGI was 6.56 µM.
The matching figures for `C=C1C(=O)O[C@H]2[C@H]1CC/C(COC(=O)c1c[nH]c3ccccc13)=C\CC[C@@]1(C)O[C@@H]21`: 0.264 µM and 1 µM.

Another experiment has as its system MALME-3M melanoma. Nature of the experiment: NCI anticancer screen, dose series, 48 h.
Compound `CCOC(=O)c1cc2nc3ccccc3c(=O)n2c2ccccc12` registered a TGI of over 10 µM.
Regarding `CCN1CCN(c2nc(C)cc(N(CCNc3ccnc4cc(Cl)ccc34)Cc3ccc4c(c3)OCO4)n2)CC1`, the GI50 was 1.84 µM and the TGI was found to be 3.44 µM.
Take `COc1c(Cl)c(=O)oc2ccc(Cl)cc12`: the TGI was over 100 µM.
In turn, `NS(=O)(=O)c1cc(Br)c(N=Nc2ccc(O)c3ncccc23)c(Br)c1` displayed a TGI of 79.6 µM.
For the compound `Cc1cc(I)cc(CN(C)CCCN2CCCCC2)c1O`, the GI50 is 21.7 µM and the TGI is 42.3 µM.
The matching figures for `CN(C(=O)c1ccc(C(F)(F)F)cc1)c1ccc(Oc2ccc3c(c2)cc(C(=O)N2CCN(Cc4ccc(OC(F)F)cc4)CC2)n3C)nc1`: over 34.9 µM and over 100 µM.
The compound `CCCCCCCCC/C=C1\CCC(CN2CCOCC2)C1=O` (stereo unspecified) registered a TGI of 19 µM.
Regarding `Cc1ccccc1S(=O)(=O)OC1NS(=O)(=O)c2ccccc21` (stereo unspecified), the TGI was over 100 µM.
For `O=C(/C=C/c1ccncc1)c1cc(Cl)ccc1O`, the GI50 is 19.7 µM and the TGI came to 45.5 µM.
Regarding `Nc1ncnc2n[nH]c(Nc3ccc(F)cc3)c12`, the GI50 was 30.6 µM and the TGI is over 100 µM.
The matching figures for `CCN(CC)c1ccc(-c2cc(-c3cc(OC)c(OC)c(OC)c3)nc(N3CCOCC3)c2C#N)cc1`: 2.28 µM and over 29.9 µM.
In the case of `CC(=O)OC1=CC(n2cc(F)c(=O)[nH]c2=O)OC(C)C1=O` (stereo unspecified), the TGI is over 100 µM.
The same measure, in the same setting: the value for `NC1(C(=O)OCc2ccccc2)CCCC1` was 31.8 µM.
Consider `Cc1cc(/C=C/c2ccc3cc(N(C)C)ccc3[n+]2C)c(C)n1-c1ccccc1`, for which the GI50 is 0.42 µM and the TGI stood at 1.46 µM.
`Cn1cnc([N+](=O)[O-])c1S(=O)(=O)Oc1cccc2ccccc12`: the GI50 was 1.83 µM and the TGI was found to be 4.98 µM.
The like results for `O=C1c2cc3c(cc2-c2c1c1ccc(F)cc1c(=O)n2CCCNCCO)OCO3` were, in that order, 0.102 µM and 0.729 µM.
The matching figures for `COc1cccc(-c2nc(-c3ccc(NC(=O)C(C)C)cc3)[nH]c2-c2ccnc(Br)c2)c1`: 2.65 µM and 9.26 µM.
In the case of `C=C1C(=O)O[C@H]2[C@H]1CC/C(COC(=O)c1c[nH]c3ccccc13)=C\CC[C@@]1(C)O[C@@H]21`, the GI50 was 0.324 µM and the TGI is 1.27 µM.

In the next experiment the test system is PC-3 prostate. In words: NCI anticancer screen, dose series, 48 h.
Regarding `CCOC(=O)c1cc2nc3ccccc3c(=O)n2c2ccccc12`, the TGI was over 10 µM.
For the compound `CCN1CCN(c2nc(C)cc(N(CCNc3ccnc4cc(Cl)ccc34)Cc3ccc4c(c3)OCO4)n2)CC1`, the GI50 was 3.22 µM and the TGI amounted to 13.4 µM.
With `COc1c(Cl)c(=O)oc2ccc(Cl)cc12`, the TGI was over 100 µM.
In the case of `NS(=O)(=O)c1cc(Br)c(N=Nc2ccc(O)c3ncccc23)c(Br)c1`, the TGI was over 100 µM.
Consider `Cc1cc(I)cc(CN(C)CCCN2CCCCC2)c1O`, for which the GI50 is 15.4 µM and the TGI is 32.9 µM.
`CN(C(=O)c1ccc(C(F)(F)F)cc1)c1ccc(Oc2ccc3c(c2)cc(C(=O)N2CCN(Cc4ccc(OC(F)F)cc4)CC2)n3C)nc1`: the GI50 is 2.24 µM and the TGI was over 100 µM.
Regarding `CCCCCCCCC/C=C1\CCC(CN2CCOCC2)C1=O` (stereo unspecified), the TGI came out at 4.25 µM.
As for `Cc1ccccc1S(=O)(=O)OC1NS(=O)(=O)c2ccccc21` (stereo unspecified), the TGI was over 100 µM.
For the compound `O=C(/C=C/c1ccncc1)c1cc(Cl)ccc1O`, the GI50 is 14.8 µM and the TGI is 33.6 µM.
